This experiment concerns the target T1, glucagon receptor (Homo sapiens, UniProt P47871).
T1 construct: expressed in transfected cells
In words: Assay (I) Glucagon activity (cAMP biosensor, FLIPR). The format is cell-based. The conditions noted are these: HEK-293 cells with cloned glucagon receptor and cAMP biosensor; end point after 6 minutes. In short, it runs like this: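 HEK-293 cells expressing glucagon receptor with membrane cAMP biosensor (ACTOne), calcium-dye loaded with probenecid and a PDE inhibitor.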

SMILES strings stand for the structures. *1 amine or outer side, *2 acyl side, *3 side chain or, on linkers, in order; H or OH if unused. Where a SMILES comes first, the peptide text is derived from it. Side-chain parts run from the residue outwards. The star is where a group is joined. γGlu = O=C(O)[C@H](CCC(=O)[*:2])N[*:1]; εLys = N[C@@H](CCCCN[*:1])C(=O)[*:2]; Butyryl = CCCC(=O)*

T1 sequence (P47871 26-477): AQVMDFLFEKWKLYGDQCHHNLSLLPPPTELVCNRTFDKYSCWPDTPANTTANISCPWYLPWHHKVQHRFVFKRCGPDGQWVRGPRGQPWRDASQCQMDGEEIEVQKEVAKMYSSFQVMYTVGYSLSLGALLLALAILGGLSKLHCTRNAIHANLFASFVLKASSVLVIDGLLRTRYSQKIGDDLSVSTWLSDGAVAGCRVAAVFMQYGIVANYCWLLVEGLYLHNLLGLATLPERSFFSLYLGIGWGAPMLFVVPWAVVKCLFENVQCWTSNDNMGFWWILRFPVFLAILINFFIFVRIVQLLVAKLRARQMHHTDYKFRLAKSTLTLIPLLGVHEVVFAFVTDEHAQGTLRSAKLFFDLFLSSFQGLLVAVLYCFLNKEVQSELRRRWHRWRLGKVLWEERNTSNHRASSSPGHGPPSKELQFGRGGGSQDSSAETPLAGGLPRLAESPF

For `CC(=O)N[C@@H](CCC(=O)N[C@@H](CCC(=O)N[C@@H](CCC(=O)N[C@@H](CCC(=O)NCCCC[C@H](NC(=O)[C@@H](NC(=O)[C@H](Cc1ccccc1)NC(=O)[C@H](CC(=O)O)NC(=O)[C@H](CCC(N)=O)NC(=O)[C@H](C)NC(=O)[C@H](CCCNC(=N)N)NC(=O)[C@H](CCCNC(=N)N)NC(=O)[C@@H](NC(=O)[C@H](CC(=O)O)NC(=O)[C@H](CC(C)C)NC(=O)[C@H](Cc1ccc(O)cc1)NC(=O)[C@H](CCCCN)NC(=O)[C@H](CO)NC(=O)[C@H](Cc1ccc(O)cc1)NC(=O)[C@H](CC(=O)O)NC(=O)[C@H](CO)NC(=O)[C@@H](NC(=O)[C@H](Cc1ccccc1)NC(=O)[C@@H](NC(=O)CNC(=O)[C@H](CCC(N)=O)NC(=O)[C@H](CO)NC(=O)[C@@H](N)Cc1c[nH]cn1)[C@@H](C)O)[C@@H](C)O)C(C)C)C(C)C)C(=O)N[C@@H](Cc1c[nH]c2ccccc12)C(=O)N[C@@H](CC(C)C)C(=O)N[C@@H](CC(C)C)C(=O)N[C@@H](CC(N)=O)C(=O)N[C@H](C(=O)O)[C@@H](C)O)C(=O)O)C(=O)O)C(=O)O)C(=O)O` [Example 16, N^ε24-[(4S)-4-[[(4S)-4-[[(4S)-4-[[(4S)-4-acetamido-4-carboxybutanoyl]amino]-4-carboxybutanoyl]amino]-4-carboxybutanoyl]amino]-4-carboxybutanoyl]-[Val16,Lys24,Leu27]-Glucagon], a half-maximal response (EC50) required 0.0065 nM.
`CCCC(=O)N[C@@H](CCC(=O)N[C@@H](CCC(=O)N[C@@H](CCC(=O)N[C@@H](CCC(=O)NCCCC[C@H](NC(=O)[C@@H](NC(=O)[C@H](Cc1ccccc1)NC(=O)[C@H](CC(=O)O)NC(=O)[C@H](C)NC(=O)[C@H](C)NC(=O)[C@H](CCCNC(=N)N)NC(=O)[C@H](CCCNC(=N)N)NC(=O)[C@H](CC(C)C)NC(=O)[C@H](CC(=O)O)NC(=O)[C@H](CC(C)C)NC(=O)[C@H](Cc1ccc(O)cc1)NC(=O)[C@H](CCCNC(=N)N)NC(=O)[C@H](CO)NC(=O)[C@H](Cc1ccc(O)cc1)NC(=O)[C@H](CC(=O)O)NC(=O)[C@H](CO)NC(=O)[C@@H](NC(=O)[C@H](Cc1ccccc1)NC(=O)[C@@H](NC(=O)CNC(=O)[C@H](CCC(N)=O)NC(=O)[C@H](CO)NC(=O)[C@@H](N)Cc1c[nH]cn1)[C@@H](C)O)[C@@H](C)O)C(C)C)C(=O)N[C@@H](Cc1c[nH]c2ccccc12)C(=O)N[C@@H](CC(C)C)C(=O)N[C@@H](CC(C)C)C(=O)N[C@@H](CO)C(=O)N[C@H](C(=O)O)[C@@H](C)O)C(=O)O)C(=O)O)C(=O)O)C(=O)O` [Example 65, N^ε24-[(4S)-4-[[(4S)-4-[[(4S)-4-[[(4S)-4-(butanoylamino)-4-carboxybutanoyl]amino]-4-carboxybutanoyl]amino]-4-carboxybutanoyl]amino]-4-carboxybutanoyl]-[Arg^12,Leu^16,Ala^20,Lys^24,Leu^27,Ser^28]-Glucagon] (H-HSQGTFTSDYSRYLDLRRAADFVK([γGlu-γGlu-γGlu-γGlu-Butyryl])WLLST-OH): the EC50 – broadly, the midpoint of the concentration-response curve – came out at 0.021 nM.
With `CC(C)C[C@H](NC(=O)[C@H](Cc1c[nH]c2ccccc12)NC(=O)[C@H](CCCCNC(=O)CC[C@H](NC(=O)CC[C@H](NC(=O)CC[C@H](NC(=O)CC[C@H](N)C(=O)O)C(=O)O)C(=O)O)C(=O)O)NC(=O)[C@@H](NC(=O)[C@H](Cc1ccccc1)NC(=O)[C@H](CC(=O)O)NC(=O)[C@H](CCC(N)=O)NC(=O)[C@H](C)NC(=O)[C@H](CCCNC(=N)N)NC(=O)[C@H](CCCNC(=N)N)NC(=O)[C@@H](NC(=O)[C@H](CC(=O)O)NC(=O)[C@H](CC(C)C)NC(=O)[C@H](Cc1ccc(O)cc1)NC(=O)[C@H](CCCCN)NC(=O)[C@H](CO)NC(=O)[C@H](Cc1ccc(O)cc1)NC(=O)[C@H](CC(=O)O)NC(=O)[C@H](CO)NC(=O)[C@@H](NC(=O)[C@H](Cc1ccccc1)NC(=O)[C@@H](NC(=O)CNC(=O)[C@H](Cc1c[nH]cn1)NC(=O)[C@H](CO)NC(=O)[C@@H](N)Cc1c[nH]cn1)[C@@H](C)O)[C@@H](C)O)[C@@H](C)O)C(C)C)C(=O)N[C@@H](CC(C)C)C(=O)N[C@@H](CO)C(=O)N[C@H](C(=O)O)[C@@H](C)O` [Example 33, N^ε24-[(4S)-4-[[(4S)-4-[[(4S)-4-[[(4S)-4-amino-4-carboxybutanoyl]amino]-4-carboxybutanoyl]amino]-4-carboxybutanoyl]amino]-4-carboxybutanoyl]-[His3,Thr16,Lys24,Leu27,Ser28]-Glucagon] (H-HSHGTFTSDYSKYLDTRRAQDFVK([γGlu-γGlu-γGlu-γGlu])WLLST-OH), a half-maximal effect (EC50) was put at 0.008 nM.
`CC(C)C[C@H](NC(=O)[C@H](Cc1ccc(O)cc1)NC(=O)[C@H](CCCNC(=N)N)NC(=O)[C@H](CO)NC(=O)[C@H](Cc1ccc(O)cc1)NC(=O)[C@H](CC(=O)O)NC(=O)[C@H](CO)NC(=O)[C@@H](NC(=O)[C@H](Cc1ccccc1)NC(=O)[C@@H](NC(=O)CNC(=O)[C@H](Cc1c[nH]cn1)NC(=O)[C@H](CO)NC(=O)[C@@H](N)Cc1c[nH]cn1)[C@@H](C)O)[C@@H](C)O)C(=O)N[C@@H](CCC(=O)O)C(=O)N[C@@H](CO)C(=O)N[C@@H](CCCNC(=N)N)C(=O)N[C@@H](CCCNC(=N)N)C(=O)N[C@@H](C)C(=O)N[C@@H](C)C(=O)N[C@@H](CC(=O)O)C(=O)N[C@@H](Cc1ccccc1)C(=O)N[C@H](C(=O)N[C@@H](CCCCNC(=O)CC[C@H](NC(=O)CC[C@H](NC(=O)CC[C@H](NC(=O)CC[C@H](N)C(=O)O)C(=O)O)C(=O)O)C(=O)O)C(=O)N[C@@H](Cc1c[nH]c2ccccc12)C(=O)N[C@@H](CC(C)C)C(=O)N[C@@H](CC(C)C)C(=O)N[C@@H](CO)C(=O)N[C@H](C(=O)O)[C@@H](C)O)C(C)C` [Example 6, N^ε24-[(4S)-4-[[(4S)-4-[[(4S)-4-[[(4S)-4-amino-4-carboxybutanoyl]amino]-4-carboxybutanoyl]amino]-4-carboxybutanoyl]amino]-4-carboxybutanoyl]-[His3,Arg12,Glu15,Ala20,Lys24,Leu27,Ser28]-Glucagon] (H-HSHGTFTSDYSRYLESRRAADFVK([γGlu-γGlu-γGlu-γGlu])WLLST-OH): a half-maximal effect (EC50) was put at 0.0795 nM.
The compound `CC(=O)N[C@@H](CCC(=O)N[C@@H](CCC(=O)N[C@@H](CCC(=O)N[C@@H](CCC(=O)NCCCC[C@H](N)C(=O)NCCCC[C@H](NC(=O)[C@H](CC(=O)O)NC(=O)[C@H](CC(C)C)NC(=O)[C@H](Cc1ccc(O)cc1)NC(=O)[C@H](CCCCN)NC(=O)[C@H](CO)NC(=O)[C@H](Cc1ccc(O)cc1)NC(=O)[C@H](CC(=O)O)NC(=O)[C@H](CO)NC(=O)[C@@H](NC(=O)[C@H](Cc1ccccc1)NC(=O)[C@@H](NC(=O)CNC(=O)[C@H](CCC(N)=O)NC(=O)[C@H](CO)NC(=O)[C@@H](N)Cc1c[nH]cn1)[C@@H](C)O)[C@@H](C)O)C(=O)N[C@@H](CCCNC(=N)N)C(=O)N[C@@H](C)C(=O)N[C@@H](C)C(=O)N[C@@H](CCC(N)=O)C(=O)N[C@@H](CC(=O)O)C(=O)N[C@@H](Cc1ccccc1)C(=O)N[C@H](C(=O)N[C@@H](CCC(N)=O)C(=O)N[C@@H](Cc1c[nH]c2ccccc12)C(=O)N[C@@H](CC(C)C)C(=O)N[C@@H](CC(C)C)C(=O)N[C@@H](CO)C(=O)N[C@H](C(N)=O)[C@@H](C)O)C(C)C)C(=O)O)C(=O)O)C(=O)O)C(=O)O` [Example 59] (H-HSQGTFTSDYSKYLDK([εLys-γGlu-γGlu-γGlu-γGlu-Ac])RAAQDFVQWLLST-NH2) had a 50% effective concentration (EC50) of 0.013 nM.
With `CC(C)C[C@H](NC(=O)[C@H](Cc1c[nH]c2ccccc12)NC(=O)[C@H](CCCCNC(=O)CC[C@H](NC(=O)CC[C@H](NC(=O)CC[C@H](NC(=O)CC[C@H](N)C(=O)O)C(=O)O)C(=O)O)C(=O)O)NC(=O)[C@@H](NC(=O)[C@H](Cc1ccccc1)NC(=O)[C@H](CC(=O)O)NC(=O)[C@H](C)NC(=O)[C@H](C)NC(=O)[C@H](CCCNC(=N)N)NC(=O)[C@H](CCCNC(=N)N)NC(=O)[C@@H](NC(=O)[C@H](CC(=O)O)NC(=O)[C@H](CC(C)C)NC(=O)[C@H](Cc1ccc(O)cc1)NC(=O)[C@H](CCCNC(=N)N)NC(=O)[C@H](CO)NC(=O)[C@H](Cc1ccc(O)cc1)NC(=O)[C@H](CC(=O)O)NC(=O)[C@H](CO)NC(=O)[C@@H](NC(=O)[C@H](Cc1ccccc1)NC(=O)[C@@H](NC(=O)CNC(=O)[C@H](Cc1c[nH]cn1)NC(=O)[C@H](CO)NC(=O)[C@@H](N)Cc1c[nH]cn1)[C@@H](C)O)[C@@H](C)O)[C@@H](C)O)C(C)C)C(=O)N[C@@H](CC(C)C)C(=O)N[C@@H](CO)C(=O)N[C@H](C(=O)O)[C@@H](C)O` [Example 9, N^ε24-[(4S)-4-[[(4S)-4-[[(4S)-4-[[(4S)-4-amino-4-carboxybutanoyl]amino]-4-carboxybutanoyl]amino]-4-carboxybutanoyl]amino]-4-carboxybutanoyl]-[His3,Arg12,Thr16,Ala20,Lys24,Leu27,Ser28]-Glucagon] (H-HSHGTFTSDYSRYLDTRRAADFVK([γGlu-γGlu-γGlu-γGlu])WLLST-OH), a half-maximal effect (EC50) was put at 0.037 nM. This EC50 lies about 2.8-fold higher than the previous one.
In turn, `CC(=O)N[C@@H](CCC(=O)N[C@@H](CCC(=O)N[C@@H](CCC(=O)N[C@@H](CCC(=O)NCCCC[C@H](NC(=O)[C@@H](NC(=O)[C@H](Cc1ccccc1)NC(=O)[C@H](CCC(=O)O)NC(=O)[C@H](CCC(N)=O)NC(=O)[C@H](C)NC(=O)[C@H](CCCNC(=N)N)NC(=O)[C@H](CCCNC(=N)N)NC(=O)[C@H](CO)NC(=O)[C@H](CCC(=O)O)NC(=O)[C@H](CC(C)C)NC(=O)[C@H](Cc1ccc(O)cc1)NC(=O)[C@H](CCCCN)NC(=O)[C@H](CO)NC(=O)[C@@H](NC(=O)[C@H](CC(=O)O)NC(=O)[C@H](CO)NC(=O)[C@@H](NC(=O)[C@H](Cc1ccccc1)NC(=O)[C@@H](NC(=O)CNC(=O)[C@H](CCC(N)=O)NC(=O)[C@H](CO)NC(=O)[C@@H](N)Cc1c[nH]cn1)[C@@H](C)O)[C@@H](C)O)C(C)C)C(C)C)C(=O)N[C@@H](Cc1c[nH]c2ccccc12)C(=O)N[C@@H](CC(C)C)C(=O)N[C@@H](CC(C)C)C(=O)N[C@@H](CO)C(=O)N[C@H](C(=O)O)[C@@H](C)O)C(=O)O)C(=O)O)C(=O)O)C(=O)O` [Example 45, N^ε24-[(4S)-4-[[(4S)-4-[[(4S)-4-[[(4S)-4-acetamido-4-carboxybutanoyl]amino]-4-carboxybutanoyl]amino]-4-carboxybutanoyl]amino]-4-carboxybutanoyl]-[Val^10,Glu^15,Glu^21,Lys^24,Leu^27,Ser^28]-Glucagon] (H-HSQGTFTSDVSKYLESRRAQEFVK([γGlu-γGlu-γGlu-γGlu-Ac])WLLST-OH) yielded a 50% effective concentration (EC50) of 0.027 nM.

Values taken from patent US20140031278A1, “Novel Glucagon Analogues” (NOVO NORDISK A/S, priority 2011, published 2014).
